Measurements published in publication PMC11980595, “Pyruvate kinase directly generates GTP in glycolysis, supporting growth and contributing to guanosine toxicity” (mBio, 2025).

Columns and labels:
Format in all cases: biochemical
L. monocytogenes PK = target: T1, L. monocytogenes PK (Listeria monocytogenes, UniProt Q8Y6W1); test: pyruvate kinase activity assay, catalytic efficiency; settings: co-substrate PEP; only kcat/Km, in figure
T1 construct: gene pykA; construct and purification not described
T1 sequence (Q8Y6W1 1-585): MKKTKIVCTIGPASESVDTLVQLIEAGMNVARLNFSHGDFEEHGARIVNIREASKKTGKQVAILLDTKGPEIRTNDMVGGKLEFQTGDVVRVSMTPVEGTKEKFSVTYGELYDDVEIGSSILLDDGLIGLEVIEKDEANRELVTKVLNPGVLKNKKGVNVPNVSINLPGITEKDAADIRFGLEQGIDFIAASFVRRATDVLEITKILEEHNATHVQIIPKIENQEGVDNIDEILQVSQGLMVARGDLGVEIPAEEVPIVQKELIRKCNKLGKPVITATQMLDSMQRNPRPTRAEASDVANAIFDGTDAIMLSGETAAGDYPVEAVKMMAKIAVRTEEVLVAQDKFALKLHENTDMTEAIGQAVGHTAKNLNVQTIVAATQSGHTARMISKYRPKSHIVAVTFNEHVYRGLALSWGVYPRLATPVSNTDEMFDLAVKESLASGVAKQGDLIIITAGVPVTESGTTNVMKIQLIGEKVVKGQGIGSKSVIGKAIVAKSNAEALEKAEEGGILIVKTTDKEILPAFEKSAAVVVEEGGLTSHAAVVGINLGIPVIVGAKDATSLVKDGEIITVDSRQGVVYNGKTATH

E. faecalis PK = target: T2, E. faecalis PK (Enterococcus faecalis, UniProt Q836R2); test: as above; settings: co-substrate PEP; only kcat/Km, in figure
T2 construct: gene pyk; construct and purification not described
T2 sequence (Q836R2 1-585): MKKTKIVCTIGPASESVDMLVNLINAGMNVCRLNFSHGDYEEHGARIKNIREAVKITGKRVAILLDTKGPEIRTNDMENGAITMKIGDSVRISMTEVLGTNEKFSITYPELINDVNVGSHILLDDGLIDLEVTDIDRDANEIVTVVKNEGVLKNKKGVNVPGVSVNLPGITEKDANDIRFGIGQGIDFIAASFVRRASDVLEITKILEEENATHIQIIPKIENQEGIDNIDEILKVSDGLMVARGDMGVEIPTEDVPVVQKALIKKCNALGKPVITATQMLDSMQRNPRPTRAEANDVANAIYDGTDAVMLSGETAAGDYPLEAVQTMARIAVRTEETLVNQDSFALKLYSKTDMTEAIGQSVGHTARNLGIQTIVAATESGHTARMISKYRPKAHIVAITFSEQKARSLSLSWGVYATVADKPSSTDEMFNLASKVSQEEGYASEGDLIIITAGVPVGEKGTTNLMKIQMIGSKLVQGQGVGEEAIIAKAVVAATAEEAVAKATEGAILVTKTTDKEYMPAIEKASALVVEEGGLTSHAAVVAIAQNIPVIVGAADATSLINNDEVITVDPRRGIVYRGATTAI

[1] = target: T3, B. subtilis pyruvate kinase (PK) (Bacillus subtilis, UniProt P80885); test: activation of initial velocity, lactate dehydrogenase-coupled assay; settings: activator at 1 mM; NDP varied, co-substrate PEP
T3 construct: gene pyk
T3 sequence (P80885 1-585): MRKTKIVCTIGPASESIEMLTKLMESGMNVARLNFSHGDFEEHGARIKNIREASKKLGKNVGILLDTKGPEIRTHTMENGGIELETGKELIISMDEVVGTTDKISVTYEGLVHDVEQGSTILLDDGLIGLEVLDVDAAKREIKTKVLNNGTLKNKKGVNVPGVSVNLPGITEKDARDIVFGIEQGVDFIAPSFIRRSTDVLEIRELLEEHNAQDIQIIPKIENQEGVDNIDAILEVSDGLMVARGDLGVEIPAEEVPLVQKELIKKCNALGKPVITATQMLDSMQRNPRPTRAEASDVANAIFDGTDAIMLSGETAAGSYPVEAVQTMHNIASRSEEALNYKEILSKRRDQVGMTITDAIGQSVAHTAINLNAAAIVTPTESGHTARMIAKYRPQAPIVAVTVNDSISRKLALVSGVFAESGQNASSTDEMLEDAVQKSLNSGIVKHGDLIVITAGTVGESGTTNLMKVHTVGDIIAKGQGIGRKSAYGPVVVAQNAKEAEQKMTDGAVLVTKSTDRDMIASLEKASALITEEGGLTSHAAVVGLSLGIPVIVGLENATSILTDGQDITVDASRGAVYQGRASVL

SMILES	pyruvate kinase activity assay, catalytic efficiency (L. monocytogenes PK)	pyruvate kinase activity assay, catalytic efficiency (E. faecalis PK)	activation of initial velocity, lactate dehydrogenase-coupled assay [1]
Nc1ncnc2c1ncn2[C@@H]1O[C@H](COP(=O)(O)OP(=O)(O)O)[C@@H](O)[C@H]1O [ADP]	L. monocytogenes PK can use ADP and UDP but less efficiently than GDP	E. faecalis PK is also able to use ADP with high efficiency	–
Nc1ncnc2c1ncn2[C@@H]1O[C@H](COP(=O)(O)O)[C@@H](O)[C@H]1O [AMP]	–	–	when AMP, a known activator of pyruvate kinase, was added, we observed a marked increase
Nc1nc2c(ncn2[C@@H]2O[C@H](COP(=O)(O)OP(=O)(O)O)[C@@H](O)[C@H]2O)c(=O)[nH]1 [GDP]	Enterococcus faecalis and Listeria monocytogenes also showed highest catalytic efficiencies on GDP	Enterococcus faecalis and Listeria monocytogenes also showed highest catalytic efficiencies on GDP	–
